Data on six compounds can be found in patent US20040115176A1, “Fibrin-based tissue-engineered vasculature” (priority 2002, published 2004).

Common to all, as to assay type: cell-based, ovine
For assay [1], the system named is fibrin gel constructs. Nature of the assay: Isolated tissue bath, relaxation of norepinephrine constriction. Conditions: for relaxation of norepinephrine constriction: SNAP 10^−5 M, norepinephrine 3×10^−6.
The subject of assay [2] is fibrin gel constructs. Nature of the assay: Isolated tissue bath, constriction of construct rings.
The test system of assay [3] is fibrin gel constructs. Nature of the assay: Total weight of fibrin gel vessel constructs. Conditions: 10 and 20 μg/ml aprotinin, two week time point. The procedure:
Vessel constructs were left on 4.0 mm silastic tubing in which they were molded, and placed in a 50 ml conical with 30 ml of culture medium. The caps (fixed with 0.22 μm filter) were either attached to the pulsation device or left unattached. The constructs were incubated in a CO2 incubator at 37° C. and 5% CO2. Forty-eight hours after vessel molding, aprotinin (0-200 μg/ml) was added. Some of the vessel constructs were connected to a pneumatic pulsation system, representing a 5-10% radial distention at 60 beats/minute, and one of two pulsation time interval schemes (continuous or 1 hour per 12 hours). Aprotinin (Sigma), a competitive serine protease inhibitor which forms stable complexes with and blocks the active site of enzymes, was added to the fibrin mixture at 0, 10, 20, or 200 μg/ml of vessel medium. Aprotinin was reconstituted using culture medium, filter sterilized through a 0.22 μm syringe filter, and stored at 2.0 mg/ml/vial at 2-8° C. Tissue sections were weighed and some were placed in 10% buffered formalin for paraffin embedding, while others were placed in isolated tissue baths. The weights of the sections were added to obtain total construct weight. […]

The test system of assay [4] is fibrin gel constructs. Nature of the assay: Hydroxyproline assay for collagen content of constructs. The procedure:
Native tissue and vessel constructs were assayed for hydroxyproline using a modification of the methods of Reddy and Enwemeka (Clinical Biochemistry 29(3):225-9 (1996), which is hereby incorporated by reference in its entirety) to determine total collagen content. Tissues were first dabbed dry, weighed, transferred to eppendorf tubes, and then lyophilized. Samples were mixed with 2N sodium hydroxide in a total volume of 50 μl and hydrolyzed by autoclaving at 120° C. for 20 min. To the hydrolyzate was added 450 μl of chloramines-T solution containing 1.27 gm chloramines-T (Sigma) dissolved in 20 ml 50% n-propanol (Fisher) and brought to 100 ml with acetate citrate buffer containing 120 gm sodium acetate trihydrate (Fisher), 46 gm citric acid (Fisher), 12 ml acetic acid (Fisher), 34 gm sodium hydroxide bringing to 1 liter with distilled water and pH to 6.5. Mixing gently, the oxidation was allowed to proceed for 25 minutes at room temp. Samples were then gently mixed with 500 μl of Ehrlich's Reagent containing 15 gm p-dimethylaminobenzaldehyde (p-DMBA) (Sigma) dissolved in n-propanol/perchloric acid (2:1 v/v) (Fisher) and brought to 100 ml. The resulting 96-well plate of 200 μl samples was read using a spectrophotometer set to 550 nm to determine optical density, which was then correlated with collagen amount using a standard curve and a conversion factor of 8.0 μg collagen to 1 μg 4-hydroxyproline (Edwards and O'Brien, Clinica Chimica Acta 104(2):161-7 (1980), which is hereby incorporated by reference in its entirety).
Hydroxyproline is an imino acid found specifically in type I collagen at 12.5% of the total by weight. This spectrophotometric assay was used to quantitate directly the collagen content of tissue homogenates. The values are represented as μg of collagen/mg of tissue, dry weight.

Assay [5] relates to fibrin gel constructs. The assay can be described thus: PCNA staining, percentage of proliferating cells. As for the experimental part: Proliferating cell nuclear antigen stain (“PCNA”) was used to identify and quantitate the percentage of proliferating cells within the tissue-engineered vessel constructs of the present invention. PCNA is a 36 kD molecule highly conserved between species. PCNA functions as a co-factor for DNA polymerase delta in S phase and also during DNA synthesis associated with repair. The PCNA molecule has a half life greater than 20 hours and, therefore, may detect non-proliferating cells in Go phase. Tissue section were fixed in 10% buffered formalin, and paraffin embedded. Tissue sections were cut at 4 μm and placed on positive slides. Sections were then deparaffinised and rehydrated to distilled water. Endogenous peroxidase was blocked by placing sections in […] for 10 minutes and then washed in tap water. Antigen retrieval methods were then applied. Sections were either boiled in 0.01M citrate buffer, or placed in a microwave for 30 seconds on low power. Sections were then washed 1×5 minutes in […] (TBS). Sections were placed in diluted normal serum for 10 minutes, incubated with primary antibody, and washed in TBS 2×5 minutes. Sections were also incubated with biotinylated secondary antibody, and washed in TBS 2×5 minutes. Slides were then incubated in ABC reagent (streptavidin/peroxidase complex), and washed in TBS 2×5 minutes. Slides were incubated in DAB (peroxidase substrate), and washed thoroughly in running tap water. The slides were then counterstained with hematoxylin, dehydrated, and mounted. Proliferating cell nuclear antigen (PCNA) was used to identify cells that were in a proliferating state using histological staining methods. FIGS. 11A-D represent constructs that were stained at 1 week (FIGS. 11A and 11B) and 2 weeks (FIGS. 11C and 11D). The constructs in FIGS. 11A and 11C were under non-pulsed conditions. The constructs in FIGS. 11B and 11D were under pulsed conditions. The PCNA antibody was visualized with diaminobenzidine (DAB) and counter stained with hematoxylin. There was little staining visualized at the one week time point as compared to the two week time point for both the non-pulsed and pulsed constructs. The non-pulsed tissue was slightly greater at both one and two weeks. The PCNA staining was quantitated by counting the total number of positive cells per high powered field and dividing by the total number of cells in the same field to obtain percent of proliferation.

Assay [6] concerns fibrin gel constructs. Nature of the assay: Cell density within vessel constructs (H&E histology). As for the experimental part: Histological sections of the vessel constructs that were previously prepared with H&E Stain were used to count total number of cells per area. Random high powered fields were measured using Photo Spot software to calculate the actual surface area. The hematoxylin nuclear stain was used to identify the number of cells per high powered field. This was then used to calculate the number cells per surface area (cells/mm^2). Cell density within vessel constructs of the present invention was calculated using histology sections stained with hematoxylin and eosin. Total number of cells were counted per high powered field, divided by the area measured using Photospot Advanced software, and reported as number of cells/mm^2. […] However, at 10 μg/ml aprotinin and thereafter, both groups were decreased and equal. The altered pulsation group ( 1/12 pulsation) (2 wks, 608±123 cells/mm^2, n=5) was equal to both non-pulsed and pulsed at 20 μg/ml aprotinin (FIG. 17). Considering the change in cell density over time (1, 2, 3, 4 and 8 weeks), they were similar at weeks 1 and 2. […] At weeks 4 and 8, there was a significant difference between the two groups (Non-pulsed: 1 wk, 613±140, n=2; 2 wk, 591±52, n=6; 3 wk, 817±43, n=2; 4 wk, 865±17, n=4; 8 wk, 751±101, n=6; Pulsed: 1 wk, 566±33, n=2; 2 wk, 448±71, n=5; 3 wk, 480±213, n=3; 4 wk, 175±25, n=4; 8 wk, 168±54, n=3) (FIG. 18).

Where [7] appears, read: altered pulsation (1 hour per 12 hours), 20 μg/ml aprotinin, 2 wks.
[8] abbreviates: non-pulsed, 10 μg/ml aprotinin, 14 days.
The mark [9] stands for this setting: non-pulsed, 20 μg/ml aprotinin, 4 wk.
The mark [10] stands for this setting: non-pulsed, 20 μg/ml aprotinin, 8 wk.
Where [11] appears, read: non-pulsed, 20 μg/ml aprotinin, 14 days (2 wk).
Setting [12] is: non-pulsed, 200 μg/ml aprotinin, 14 days.
Setting [13] is: pulsed, 10 μg/ml aprotinin, 14 days.
The mark [14] stands for this setting: pulsed, 20 μg/ml aprotinin, 4 wk.
[15] abbreviates: pulsed, 20 μg/ml aprotinin, 8 wk.
Where [16] appears, read: pulsed, 20 μg/ml aprotinin, 14 days (2 wk).
[17] abbreviates: pulsed, 200 μg/ml aprotinin, 14 days.
The mark [18] stands for this setting: non-pulsed, 20 μg/ml aprotinin, 1 wk.
[19] abbreviates: non-pulsed, 20 μg/ml aprotinin, 3 wk.
Where [20] appears, read: pulsed, 20 μg/ml aprotinin, 1 wk.
Setting [21] is: pulsed, 20 μg/ml aprotinin, 3 wk.

With `CC(=O)N[C@@H](C(=O)O)C(C)(C)SN=O` (racemic) [SNAP], the “relaxation of norepinephrine constriction” value in the assay with fibrin gel constructs [1] (non-pulsed constructs) was 42 % of constriction; in the assay on fibrin gel constructs [1] (pulsed constructs), “fully”. In addition, the “relaxation of norepinephrine constriction compared with 0, 10 and 20 μg/ml aprotinin” value with fibrin gel constructs [1] (SNAP 10^−7 and 10^−6 M, norepinephrine 10^−6 M, non-pulsed constructs, 200 μg/ml aprotinin) was “much greater”.
Regarding `[Cl-].[K+]` [KCl], the constriction is 18446±4027 dynes/cm^2 in the assay on fibrin gel constructs [2] (118 mM KCl, non-pulsed constructs grown with 10 μg/ml aprotinin); 12244±2083 dynes/cm^2 with fibrin gel constructs [2] (118 mM KCl, non-pulsed constructs grown with 20 μg/ml aprotinin); 6056±2003 dynes/cm^2 with fibrin gel constructs [2] (118 mM KCl, non-pulsed constructs grown with 200 μg/ml aprotinin); 19274±8302 dynes/cm^2 in the assay on fibrin gel constructs [2] (118 mM KCl, pulsed constructs grown with 10 μg/ml aprotinin); 8896±1347 dynes/cm^2 with fibrin gel constructs [2] (118 mM KCl, pulsed constructs grown with 20 μg/ml aprotinin); 2232±475 dynes/cm^2 in the assay with fibrin gel constructs [2] (118 mM KCl, pulsed constructs grown with 200 μg/ml aprotinin).
`CCCCC[C@H](O)/C=C/[C@@H]1[C@@H](C/C=C\CCCC(=O)O)[C@H]2CO[C@@H]1C2` [U46619]: the constriction in the assay on fibrin gel constructs [2] (U46619 3×10^−7, non-pulsed constructs, 0 μg/ml aprotinin) amounted to 1160±775 dynes/cm^2; with fibrin gel constructs [2] (U46619 3×10^−7, non-pulsed constructs, 200 μg/ml aprotinin), 2140±416 dynes/cm^2; in the assay with fibrin gel constructs [2] (U46619 3×10^−7, pulsed constructs, 10 μg/ml aprotinin), 2670±944 dynes/cm^2; with fibrin gel constructs [2] (U46619 3×10^−7, pulsed constructs, 200 μg/ml aprotinin), 973±240 dynes/cm^2.
As for `CC(C)NCC(O)c1ccc(O)c(O)c1` (stereo not shown) [isoproterenol], the relaxation result with fibrin gel constructs [1] (isoproterenol compared with SNAP) is “much less than that of SNAP”.
Turning to `NC[C@H](O)c1ccc(O)c(O)c1` [norepinephrine], the constriction in the assay with fibrin gel constructs [2] (norepinephrine 3×10^−6 M, non-pulsed constructs, 0 μg/ml aprotinin) was 4743±1849 dynes/cm^2; with fibrin gel constructs [2] (norepinephrine 3×10^−6 M, non-pulsed constructs, 200 μg/ml aprotinin), 965±16 dynes/cm^2; in the assay with fibrin gel constructs [2] (norepinephrine 3×10^−6 M, pulsed constructs, 10 μg/ml aprotinin) it was 4316±1738 dynes/cm^2; in the assay on fibrin gel constructs [2] (norepinephrine 3×10^−6 M, pulsed constructs, 200 μg/ml aprotinin) it was 101±102 dynes/cm^2.
Turning to aprotinin, the “increase in total tissue weight with later (48 hrs) addition of aprotinin” value in the assay on fibrin gel constructs [3] (non-pulsed) amounted to 50%; in the assay on fibrin gel constructs [3] (pulsed), 130%. Moreover, the collagen content with fibrin gel constructs [4] (setting [7]) amounted to 266.6 ± 20.9 µg/mg; in the assay on fibrin gel constructs [4] (setting [8]), 175.2 ± 42.3 µg/mg; in the assay with fibrin gel constructs [4] (setting [9]), 239.9 ± 73.2 µg/mg; with fibrin gel constructs [4] (setting [10]), 283.5 ± 80.3 µg/mg; in the assay on fibrin gel constructs [4] (setting [11]) it was 225.0 ± 30.2 µg/mg; with fibrin gel constructs [4] (setting [12]) it was 270.1 ± 46.2 µg/mg. Moreover, the collagen content in the assay on fibrin gel constructs [4] (setting [13]) was determined as 31.5 ± 22.5 µg/mg; with fibrin gel constructs [4] (setting [14]) it was 124.5 ± 25.1 µg/mg; in the assay on fibrin gel constructs [4] (setting [15]) it was 91.8 ± 24.3 µg/mg; in the assay with fibrin gel constructs [4] (setting [16]), 105.9 ± 16.7 µg/mg; with fibrin gel constructs [4] (setting [17]), 217.3 ± 21.0 µg/mg. Also, the “percent of proliferation (PCNA positive cells)” value (“percent of proliferation” for short) came to 26.3±5.0% in the assay on fibrin gel constructs [5] (setting [7]); 73.3±8.8% in the assay on fibrin gel constructs [5] (setting [8]); 20.44±44.0% in the assay with fibrin gel constructs [5] (setting [18]); 55.5±4.7% in the assay with fibrin gel constructs [5] (setting [19]); 20.1±7.6% in the assay on fibrin gel constructs [5] (setting [9]); 22.8±3. % in the assay on fibrin gel constructs [5] (setting [10]). In addition, the “percent of proliferation” value in the assay on fibrin gel constructs [5] (setting [11]) is listed as 73.6±6.3%; in the assay on fibrin gel constructs [5] (setting [12]), 2.9±0.9%; in the assay on fibrin gel constructs [5] (setting [13]), 12.3±3.6%; in the assay on fibrin gel constructs [5] (setting [20]) it was 41.7±31.1%; in the assay with fibrin gel constructs [5] (setting [21]), 37.5±3.6%; with fibrin gel constructs [5] (setting [14]), 28.0±6.9%. In addition, the figures for the “percent of proliferation” value with fibrin gel constructs [5] (setting [15]), with fibrin gel constructs [5] (setting [16]) and in the assay on fibrin gel constructs [5] (setting [17]) were 14.7±7.5%, 89.6±2.6% and 7.7±1.9%, respectively. Also, the cell density in the assay with fibrin gel constructs [6] (setting [7]) worked out at 608±123 cells/mm^2; with fibrin gel constructs [6] (setting [8]), 731±108 cells/mm^2; with fibrin gel constructs [6] (setting [18]), 613±140 cells/mm^2; with fibrin gel constructs [6] (setting [19]) it was 817±43 cells/mm^2; in the assay with fibrin gel constructs [6] (setting [9]), 865±17 cells/mm^2; in the assay with fibrin gel constructs [6] (setting [10]) it was 751±101 cells/mm^2. In addition, the cell density with fibrin gel constructs [6] (setting [11]) came out at 591±52 cells/mm^2; in the assay on fibrin gel constructs [6] (setting [12]), 635±98 cells/mm^2; in the assay on fibrin gel constructs [6] (setting [13]), 611±180 cells/mm^2; with fibrin gel constructs [6] (setting [20]), 566±33 cells/mm^2; in the assay on fibrin gel constructs [6] (setting [21]) it was 480±213 cells/mm^2; with fibrin gel constructs [6] (setting [14]), 175±25 cells/mm^2. The cell density in the assay with fibrin gel constructs [6] (setting [15]) is on record as 168±54 cells/mm^2; in the assay on fibrin gel constructs [6] (setting [16]), 448±71 cells/mm^2; in the assay on fibrin gel constructs [6] (setting [17]), 390±59 cells/mm^2.
